According to patent US9271993B2, “Treatment of bacterial infectious diseases” (priority 2010, dated 2016):

Tests used:
[1] = General toxicity in guinea pigs; assay type: in vivo; conditions: systemic, once daily for 14 days, monitored additional 14 days
Description: Guinea pigs received a systemic application of aminoglycosides once daily in the dosing indicated in Table 9 for 14 days and were then monitored for an additional 14 days.

[2] = tested on: bacterial ribosomes; assay: Ribosomal drug susceptibility (MIC) of recombinant bacteria; set-up: MIC, bacterial ribosomes: unit not given beside the values; conditions: Table 7; 72 h incubation
[3] = tested on: E. coli; assay: MIC against gram-negative bacteria; assay type: cell-based
Description: Agents Chemother. 2003, 47:1496-1502.

[4] = tested on: mitohybrid ribosomes; assay: Ribosomal drug susceptibility (MIC) of recombinant bacteria; set-up: MIC, mitohybrid ribosomes: unit not given beside the values; conditions: Table 7; 72 h incubation
[5] = tested on: cytohybrid ribosomes; assay: as above; set-up: MIC, cytohybrid ribosomes: unit not given beside the values; conditions: Table 7; 72 h incubation
[6] = tested on: clinical methicillin resistant Staphylococcus aureus (MRSA) isolates; assay: MIC against clinical MRSA isolates, LB microdilution assay
Procedure: Activity was assessed by determination of minimal inhibitory concentrations (MIC), as described in Pfister et al., Antimicrob. […] Cultures from single colonies were grown in LB medium and used for MIC tests in a microtiter plate format. Starting cultures contained 200 μl of bacterial cells at an optical density of 0.025 at 600 nm, and the respective drug was added in twofold series of dilution.

[7] = tested on: Cochlear explants from newborn mice; assay: Cochleatoxicity in vitro, hair cell loss in cochlear explants; assay type: cell-based; conditions: for Hair cell count: 0.5 mM aminoglycoside for 24 h, epifluorescence microscopy; for inner and outer hair cells missing / lost: 0.5 mM, FIG. 1
Procedure: FIG. 1: Cochleatoxicity in vitro
(a) Dose-response relationship of drug-induced hair cell loss in cochlear explants. Hair cell loss was quantified along the entire length of the explant and plotted against drug concentration. %=% outer hair cells missing.
Cochlear explants from newborn mice were treated with 0.5 mM aminoglycoside compound for 24 h; subsequently hair cell damage was assessed by epifluorescence microscopy.

[8] = E. coli AG01, clin. isol. (Gm^S)
[9] = E. coli AG02, clin. isol (Gm^S)
[10] = E. coli AG03, clin. isol (Gm^R)
[11] = E. coli AG08, BM13/pIP055, resistance mechanism ANT(2″)
[12] = E. coli AG09, AAC(6′)-1B, resistance mechanism AAC(6′)
[13] = E. coli AG36, HB101/pAT197, resistance mechanism ANT(4′)
[14] = E. coli AG37, HB101/pAG21-1, resistance mechanism APH(3′)
[15] = MRSA AG042, strain 101-06R Gm^R

## Gentamicin
[1]; 120 mg/kg base
  observations (general toxicity): normal weight gain
[1]; 140 mg/kg base
  observations (general toxicity): significant weight loss
[1]; 160 mg/kg base
  observations (general toxicity): 2 out of 3 died
[2]
  MIC, bacterial ribosomes: 1
[3]; [8]
  MIC: 4 to 8 µg/mL
[3]; [9]
  MIC: 2 µg/mL
[3]; [10]
  MIC: 256 to 512 µg/mL
[3]; E. coli AG06, BM13
  MIC: 0.5 µg/mL
[3]; [11]
  MIC: 16 µg/mL
[3]; [12]
  MIC: 8 to 16 µg/mL
[3]; [13]
  MIC: 0.5 µg/mL
[3]; [14]
  MIC: 0.25 µg/mL
[4]
  MIC, mitohybrid ribosomes: 128
[5]
  MIC, cytohybrid ribosomes: 1024
[6]; MRSA AG038, strain 70-26S Gm^S
  MIC: 0.5 µg/mL
[6]; MRSA AG040, strain 87-26S Gm^S
  MIC: 0.5 µg/mL
[6]; MRSA AG041, strain 98-25S Gm^S
  MIC: 0.5 µg/mL
[6]; [15]
  MIC: 32 to 64 µg/mL
[6]; MRSA AG043, strain 01-08R Gm^R
  MIC: 32 to 64 µg/mL
[6]; MRSA AG044, strain 07-12R Gm^R
  MIC: 16 µg/mL
[6]; MRSA AG045, strain 08-12R Gm^R
  MIC: 16 µg/mL
[6]; MRSA AG046, strain 12-06R Gm^R
  MIC: ≧256 mg/l
[6]; MRSA AG047, strain 18-06R Gm^R
  MIC: ≧256 mg/l
[6]; MRSA AG048, strain 20-06R Gm^R
  MIC: ≧256 mg/l
[6]; MRSA AG049, strain 23-12R Gm^R
  MIC: 16 µg/mL
[6]; MRSA AG050, strain 31-06R Gm^R
  MIC: 128 µg/mL
[6]; MRSA AG051, strain 36-06R Gm^R
  MIC: 128 µg/mL
[6]; MRSA AG052, strain 53-14I Gm^R
  MIC: 16 to 32 µg/mL
[6]; MRSA AG053, strain 56-06R Gm^R
  MIC: 64 µg/mL
[7]
  Hair cell count: almost all hair cells (inner and outer) missing
  inner and outer hair cells missing / lost: > 80%

## Neomycin
[2]
  MIC, bacterial ribosomes: 1
[3]; [8]
  MIC: 8 to 16 µg/mL
[3]; [9]
  MIC: 4 µg/mL
[3]; [10]
  MIC: 4 µg/mL
[3]; E. coli AG06, BM13
  MIC: 1 µg/mL
[3]; E. coli AG07, BM13/pIP135, resistance mechanism AAC(3)
  MIC: 4 µg/mL
[3]; [11]
  MIC: 2 to 4 µg/mL
[3]; [12]
  MIC: 8 to 32 µg/mL
[3]; [13]
  MIC: 32 µg/mL
[3]; [14]
  MIC: >256 µg/mL
[4]
  MIC, mitohybrid ribosomes: 32
[5]
  MIC, cytohybrid ribosomes: 1024
[6]; MRSA AG038, strain 70-26S Gm^S
  MIC: 0.5 to 1 µg/mL
[6]; MRSA AG040, strain 87-26S Gm^S
  MIC: 128 µg/mL
[6]; MRSA AG041, strain 98-25S Gm^S
  MIC: 0.5 to 1 µg/mL
[6]; [15]
  MIC: 128 µg/mL
[6]; MRSA AG043, strain 01-08R Gm^R
  MIC: 1 to 4 µg/mL
[6]; MRSA AG044, strain 07-12R Gm^R
  MIC: 0.5 to 1 µg/mL
[6]; MRSA AG045, strain 08-12R Gm^R
  MIC: 0.5 to 1 µg/mL
[6]; MRSA AG046, strain 12-06R Gm^R
  MIC: >256 µg/mL
[6]; MRSA AG047, strain 18-06R Gm^R
  MIC: 256 µg/mL
[6]; MRSA AG048, strain 20-06R Gm^R
  MIC: 256 µg/mL
[6]; MRSA AG049, strain 23-12R Gm^R
  MIC: >256 µg/mL
[6]; MRSA AG050, strain 31-06R Gm^R
  MIC: 64 µg/mL
[6]; MRSA AG051, strain 36-06R Gm^R
  MIC: 64 µg/mL
[6]; MRSA AG052, strain 53-14I Gm^R
  MIC: >256 µg/mL
[6]; MRSA AG053, strain 56-06R Gm^R
  MIC: 0.5 to 1 µg/mL
[7]
  Hair cell count: almost all hair cells (inner and outer) missing
  inner and outer hair cells missing / lost: > 80%
